Laboratory results reported in PubChem BioAssay AID248 (DTP/NCI, 2004).
“And” between values parts separate entries of the source, which are not always exact repeats. Identical values can stand only once. Inconclusive results and toxic doses are left out. No stated cut-off is given here; in the data, active means T/C of 150% or more; inactive means T/C below 125%.

Tested on: L1210 leukemia ip in BDF1 mice, survival T/C
Experiment: NCI In Vivo Anticancer Drug Screen. Data for tumor model L1210 Leukemia (intraperitoneal) in B6D2F1 (BDF1) mice
Details: endpoint: mean survival time, higher = longer survival
How it was run: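 Read-out is survival time, reported as the treated-group measurement over the vehicle-control measurement.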

[1] = dose: 100.0 mg/kg/injection, schedule: Q04DX002 (ip), vehicle: saline
[2] = dose: 200.0 mg/kg/injection, schedule: Q04DX002 (ip), vehicle: saline
[3] = dose: 100.0 mg/kg/injection, schedule: Q01DX009 (ip), vehicle: Klucel (hydroxypropylcellulose) (HPC)
[4] = dose: 100.0 mg/kg/injection, schedule: Q04DX003 (ip), vehicle: saline
[5] = dose: 200.0 mg/kg/injection, schedule: Q01DX009 (ip), vehicle: Klucel (hydroxypropylcellulose) (HPC)
[6] = dose: 200.0 mg/kg/injection, schedule: Q04DX003 (ip), vehicle: saline
[7] = dose: 400.0 mg/kg/injection, schedule: Q01DX009 (ip), vehicle: Klucel (hydroxypropylcellulose) (HPC)
[8] = dose: 400.0 mg/kg/injection, schedule: Q04DX003 (ip), vehicle: saline
[9] = dose: 50.0 mg/kg/injection, schedule: Q01DX001 (ip), vehicle: saline
[10] = dose: 100.0 mg/kg/injection, schedule: Q01DX001 (ip), vehicle: saline
[11] = dose: 200.0 mg/kg/injection, schedule: Q01DX001 (ip), vehicle: saline
[12] = dose: 400.0 mg/kg/injection, schedule: Q01DX001 (ip), vehicle: saline
[13] = dose: 100.0 mg/kg/injection, schedule: Q04DX003 (ip), vehicle: Klucel (hydroxypropylcellulose) (HPC)
[14] = dose: 200.0 mg/kg/injection, schedule: Q04DX003 (ip), vehicle: Klucel (hydroxypropylcellulose) (HPC)
[15] = dose: 400.0 mg/kg/injection, schedule: Q04DX003 (ip), vehicle: Klucel (hydroxypropylcellulose) (HPC)
[16] = dose: 100.0 mg/kg/injection, schedule: Q01DX001 (ip), vehicle: Klucel (hydroxypropylcellulose) (HPC)
[17] = dose: 200.0 mg/kg/injection, schedule: Q01DX001 (ip), vehicle: Klucel (hydroxypropylcellulose) (HPC)
[18] = dose: 400.0 mg/kg/injection, schedule: Q01DX001 (ip), vehicle: Klucel (hydroxypropylcellulose) (HPC)
[19] = dose: 50.0 mg/kg/injection, schedule: Q01DX009 (ip), vehicle: saline
[20] = dose: 100.0 mg/kg/injection, schedule: Q04DX002 (ip), vehicle: saline with Tween-80
[21] = dose: 200.0 mg/kg/injection, schedule: Q04DX002 (ip), vehicle: saline with Tween-80
[22] = dose: 400.0 mg/kg/injection, schedule: Q04DX002 (ip), vehicle: saline with Tween-80
[23] = dose: 12.5 mg/kg/injection, schedule: Q01DX009 (ip), vehicle: saline

Measured: T/C

CCOC(=O)CNc1ccc(F)c(C(F)(F)F)c1
inactive: [1] 95 % of control and 107 % of control | [2] 103 % of control and 92 % of control | dose: 400.0 mg/kg/injection, schedule: Q04DX002 (ip), vehicle: saline 110 % of control | dose: 600.0 mg/kg/injection, schedule: Q04DX002 (ip), vehicle: saline 95 % of control

CC(=O)Oc1c(Br)c(-c2c(C)cc(C)c(Br)c2C)c(OC(C)=O)c(Br)c1-c1c(C)cc(C)c(Br)c1C
inactive: [3] 97 % of control | [4] 113 % of control | [5] 96 % of control | [6] 95 % of control | [7] 97 % of control | [8] 101 % of control

O=C(CCCC(=O)NNC(=O)Nc1ccc(N=Nc2ccccc2)cc1)NNC(=O)Nc1ccc(N=Nc2ccccc2)cc1
inactive: [9] 93 % of control | [10] 102 % of control | [11] 96 % of control | [12] 100 % of control

C=C1C(=O)OC2C1CCC(C)=C1C(=O)C=C(C)C12 (centres undefined)
inactive: [1] 94 % of control | [2] 97 % of control

CCOC(=O)CCSC(C)(C)C(=O)OCC
inactive: [3] 97 % of control | [5] 101 % of control | [7] 100 % of control

CCCCc1c(N)nc(=S)[nH]c1C(=O)O
inactive: dose: 75.0 mg/kg/injection, schedule: Q01DX009 (ip), vehicle: Klucel (hydroxypropylcellulose) (HPC) 98 % of control | [13] 95 % of control | dose: 150.0 mg/kg/injection, schedule: Q01DX009 (ip), vehicle: Klucel (hydroxypropylcellulose) (HPC) 106 % of control | [14] 98 % of control and 91 % of control | dose: 300.0 mg/kg/injection, schedule: Q01DX009 (ip), vehicle: Klucel (hydroxypropylcellulose) (HPC) 108 % of control | [15] 96 % of control

ClCc1cc(OCc2ccccc2)ccc1OCc1ccccc1
inactive: dose: 75.0 mg/kg/injection, schedule: Q04DX003 (ip), vehicle: Klucel (hydroxypropylcellulose) (HPC) 86 % of control | [16] 101 % of control | dose: 150.0 mg/kg/injection, schedule: Q04DX003 (ip), vehicle: Klucel (hydroxypropylcellulose) (HPC) 91 % of control | [17] 94 % of control | dose: 300.0 mg/kg/injection, schedule: Q04DX003 (ip), vehicle: Klucel (hydroxypropylcellulose) (HPC) 86 % of control | [18] 97 % of control

OC1C2CC3C1C3C2O (centres undefined)
inactive: dose: 100.0 mg/kg/injection, schedule: Q01DX009 (ip), vehicle: saline with Tween-80 94 % of control | dose: 200.0 mg/kg/injection, schedule: Q01DX009 (ip), vehicle: saline with Tween-80 94 % of control | dose: 400.0 mg/kg/injection, schedule: Q01DX009 (ip), vehicle: saline with Tween-80 97 % of control

COc1cc(N=C(N)N=C(N)N)c2ncccc2c1
inactive: dose: 75.0 mg/kg/injection, schedule: Q01DX001 (ip), vehicle: carboxymethylcellulose (CMC) 97 % of control

CC(=O)Nc1ccc(Cl)cc1C(=O)c1ccc[nH]1
inactive: [19] 110 % of control | dose: 100.0 mg/kg/injection, schedule: Q01DX009 (ip), vehicle: saline 104 % of control | [4] 106 % of control | dose: 200.0 mg/kg/injection, schedule: Q01DX009 (ip), vehicle: saline 103 % of control | [6] 108 % of control | dose: 400.0 mg/kg/injection, schedule: Q01DX009 (ip), vehicle: saline 98 % of control | [8] 93 % of control

CCOC(=O)c1cnc(SC)nc1NC(C(=O)OCC)C(=O)OCC
inactive: [13] 93 % of control | [14] 100 % of control | [15] 95 % of control

Cc1cccc(N2CCN(CCO)CC2)c1
inactive: [19] 106 % of control

CCc1ccc(C)[n+](N)c1
inactive: [9] 103 % of control | [10] 109 % of control

COc1cc(/C=C\C(=O)O)cc(Cl)c1O
inactive: dose: 50.0 mg/kg/injection, schedule: Q01DX009 (ip), vehicle: saline + alcohol 94 % of control | dose: 100.0 mg/kg/injection, schedule: Q01DX009 (ip), vehicle: saline + alcohol 101 % of control | dose: 200.0 mg/kg/injection, schedule: Q01DX009 (ip), vehicle: saline + alcohol 105 % of control

Cc1cc(N)c(C(=O)NN)cc1C
inactive: [10] 96 % of control | [11] 93 % of control | [12] 113 % of control

CN1CC(C)(C)C(=O)N1
inactive: dose: 25.0 mg/kg/injection, schedule: Q01DX001 (ip), vehicle: saline 97 % of control | [9] 100 % of control | [10] 108 % of control | [11] 86 % of control

Cc1c(O)c2ccccc2[nH]c1=O
inactive: [20] 97 % of control | [21] 103 % of control | [22] 106 % of control

FC(F)(F)c1nc(S)cc(=S)[nH]1
inactive: dose: 50.0 mg/kg/injection, schedule: Q01DX Z (ip), vehicle: methylcellulose (MC) 96 % of control | dose: 100.0 mg/kg/injection, schedule: Q01DX Z (ip), vehicle: methylcellulose (MC) 93 % of control

CCOc1ccc2nc(/C=C\c3cc4c5c(c3)CCCN5CCC4)ccc2c1
inactive: [3] 87 % of control | [13] 95 % of control | [5] 97 % of control | [14] 98 % of control | [7] 97 % of control | [15] 98 % of control

CC1(C)C(O)(C#N)C(C)(C)C1(O)C#N (centres undefined)
inactive: dose: 3.13 mg/kg/injection, schedule: Q01DX009 (ip), vehicle: saline 107 % of control | dose: 6.25 mg/kg/injection, schedule: Q01DX009 (ip), vehicle: saline 115 % of control | [23] 105 % of control

O=C(CC(=O)C(F)(F)C(F)(F)C(F)(F)F)C(F)(F)F
inactive: [23] 107 % of control | dose: 12.5 mg/kg/injection, schedule: Q04DX003 (ip), vehicle: saline 102 % of control | dose: 25.0 mg/kg/injection, schedule: Q01DX009 (ip), vehicle: saline 88 % of control | dose: 25.0 mg/kg/injection, schedule: Q04DX003 (ip), vehicle: saline 87 % of control | dose: 50.0 mg/kg/injection, schedule: Q04DX003 (ip), vehicle: saline 93 % of control

N#CSCCOCCSC#N
inactive: dose: 5.0 mg/kg/injection, schedule: Q01DX001 (ip), vehicle: saline 108 % of control | dose: 10.0 mg/kg/injection, schedule: Q01DX001 (ip), vehicle: saline 96 % of control

Cc1ccn(-c2ccccc2)n1
inactive: dose: 100.0 mg/kg/injection, schedule: Q01DX009 (ip), vehicle: other 100 % of control | dose: 100.0 mg/kg/injection, schedule: Q04DX003 (ip), vehicle: other 101 % of control | dose: 200.0 mg/kg/injection, schedule: Q01DX009 (ip), vehicle: other 90 % of control | dose: 200.0 mg/kg/injection, schedule: Q04DX003 (ip), vehicle: other 104 % of control | dose: 400.0 mg/kg/injection, schedule: Q01DX009 (ip), vehicle: other 107 % of control | dose: 400.0 mg/kg/injection, schedule: Q04DX003 (ip), vehicle: other 104 % of control

CCOCCOCCOC(C)Oc1cccc(C(=O)OCC)c1 (centres undefined)
inactive: [20] 103 % of control | [21] 103 % of control | [22] 100 % of control

O=C(OCC1OC(n2ccc(=O)nc2[Se])C(OC(=O)c2ccccc2)C1OC(=O)c1ccccc1)c1ccccc1 (centres undefined)
inactive: dose: 100.0 mg/kg/injection, schedule: Q01DX005 (ip), vehicle: saline 89 % of control | dose: 200.0 mg/kg/injection, schedule: Q01DX005 (ip), vehicle: saline 96 % of control

O=C(O)c1c[nH]c2cc(Cl)ccc2c1=O
inactive: [16] 90 % of control | dose: 100.0 mg/kg/injection, schedule: Q04DX003 (ip), vehicle: saline with Tween-80 100 % of control | [17] 101 % of control | dose: 200.0 mg/kg/injection, schedule: Q04DX003 (ip), vehicle: saline with Tween-80 101 % of control and 105 % of control | [18] 97 % of control | dose: 400.0 mg/kg/injection, schedule: Q04DX003 (ip), vehicle: saline with Tween-80 100 % of control and 90 % of control

Cc1ccc(S(=O)(=O)Nc2cc(Cl)c(I)c(Cl)c2)cc1
inactive: [3] 96 % of control | [5] 102 % of control | [7] 100 % of control
